Experimental data taken from ChEMBL document CHEMBL3046289, “Synthesis and in vitro antimicrobial activity of some newer quinazolinonesulfonamide linked hybrid heterocyclic entities derived from glycine” (2013).
≈ marks a conversion by molar mass, not a printed value.

Columns and labels:
Type in all cases: functional
Aspergillus niger = assay: Antifungal activity against Aspergillus niger MTCC 282 assessed as growth inhibition after 48 hr by broth microdilution method; conditions: MTCC 282, 48 h
Klebsiella pneumoniae = assay: Antibacterial activity against Klebsiella pneumoniae MTCC 139 assessed as growth inhibition after 24 hr by broth microdilution method; conditions: MTCC 139, 24 h
Bacillus cereus = assay: Antibacterial activity against Bacillus cereus MTCC 1305 assessed as growth inhibition after 24 hr by broth microdilution method; conditions: MTCC 1305, 24 h
Candida albicans = assay: Antifungal activity against Candida albicans MTCC 227 assessed as growth inhibition after 48 hr by broth microdilution method; conditions: MTCC 227, 48 h
Pseudomonas aeruginosa = assay: Antibacterial activity against Pseudomonas aeruginosa MTCC 1688 assessed as growth inhibition after 24 hr by broth microdilution method; conditions: MTCC 1688, 24 h
Escherichia coli = assay: Antibacterial activity against Escherichia coli MTCC 443 assessed as growth inhibition after 24 hr by broth microdilution method; conditions: MTCC 443, 24 h
Staphylococcus aureus = assay: Antibacterial activity against Staphylococcus aureus MTCC 2940 assessed as growth inhibition after 24 hr by broth microdilution method; conditions: MTCC 2940, 24 h

Compound	MIC (Aspergillus niger)	MIC (Klebsiella pneumoniae)	MIC (Bacillus cereus)	MIC (Candida albicans)	MIC (Pseudomonas aeruginosa)	MIC (Escherichia coli)	MIC (Staphylococcus aureus)
CC(=O)Nc1ccc(S(=O)(=O)NCc2nc3ccccc3c(=O)n2-c2cccc(Cl)c2)cc1	55 µg/mL (≈ 114 µM)	105 µg/mL (≈ 217 µM)	95 µg/mL (≈ 197 µM)	70 µg/mL (≈ 145 µM)	70 µg/mL (≈ 145 µM)	60 µg/mL (≈ 124 µM)	65 µg/mL (≈ 135 µM)
CC(=O)Nc1ccc(S(=O)(=O)NCc2nc3ccccc3c(=O)n2-c2ccc(Cl)cc2)cc1	55 µg/mL (≈ 114 µM)	85 µg/mL (≈ 176 µM)	90 µg/mL (≈ 186 µM)	65 µg/mL (≈ 135 µM)	65 µg/mL (≈ 135 µM)	60 µg/mL (≈ 124 µM)	60 µg/mL (≈ 124 µM)
Nc1ccc(S(=O)(=O)NCc2nc3ccccc3c(=O)n2-c2cccc(Br)c2)cc1	40 µg/mL (≈ 82.4 µM)	75 µg/mL (≈ 155 µM)	60 µg/mL (≈ 124 µM)	45 µg/mL (≈ 92.7 µM)	55 µg/mL (≈ 113 µM)	50 µg/mL (≈ 103 µM)	50 µg/mL (≈ 103 µM)
Nc1ccc(S(=O)(=O)NCc2nc3ccccc3c(=O)n2-c2ccc(Br)cc2)cc1	45 µg/mL (≈ 92.7 µM)	75 µg/mL (≈ 155 µM)	65 µg/mL (≈ 134 µM)	55 µg/mL (≈ 113 µM)	50 µg/mL (≈ 103 µM)	50 µg/mL (≈ 103 µM)	55 µg/mL (≈ 113 µM)
CC(=O)Nc1ccc(S(=O)(=O)NCc2nc3ccccc3c(=O)n2-c2ccccc2Br)cc1	60 µg/mL (≈ 114 µM)	95 µg/mL (≈ 180 µM)	95 µg/mL (≈ 180 µM)	70 µg/mL (≈ 133 µM)	75 µg/mL (≈ 142 µM)	65 µg/mL (≈ 123 µM)	70 µg/mL (≈ 133 µM)
CC(=O)Nc1ccc(S(=O)(=O)NCc2nc3ccccc3c(=O)n2-c2cccc(Br)c2)cc1	55 µg/mL (≈ 104 µM)	90 µg/mL (≈ 171 µM)	90 µg/mL (≈ 171 µM)	70 µg/mL (≈ 133 µM)	70 µg/mL (≈ 133 µM)	70 µg/mL (≈ 133 µM)	65 µg/mL (≈ 123 µM)
CC(=O)Nc1ccc(S(=O)(=O)NCc2nc3ccccc3c(=O)n2-c2ccc(Br)cc2)cc1	50 µg/mL (≈ 94.8 µM)	90 µg/mL (≈ 171 µM)	95 µg/mL (≈ 180 µM)	60 µg/mL (≈ 114 µM)	65 µg/mL (≈ 123 µM)	65 µg/mL (≈ 123 µM)	60 µg/mL (≈ 114 µM)
Cc1ccccc1-n1c(CNS(=O)(=O)c2ccc(N)cc2)nc2ccccc2c1=O	90 µg/mL (≈ 214 µM)	100 µg/mL (≈ 238 µM)	105 µg/mL (≈ 250 µM)	100 µg/mL (≈ 238 µM)	80 µg/mL (≈ 190 µM)	70 µg/mL (≈ 166 µM)	90 µg/mL (≈ 214 µM)
Cc1cccc(-n2c(CNS(=O)(=O)c3ccc(N)cc3)nc3ccccc3c2=O)c1	85 µg/mL (≈ 202 µM)	115 µg/mL (≈ 273 µM)	100 µg/mL (≈ 238 µM)	95 µg/mL (≈ 226 µM)	85 µg/mL (≈ 202 µM)	65 µg/mL (≈ 155 µM)	85 µg/mL (≈ 202 µM)
Cc1ccc(-n2c(CNS(=O)(=O)c3ccc(N)cc3)nc3ccccc3c2=O)cc1	75 µg/mL (≈ 178 µM)	90 µg/mL (≈ 214 µM)	95 µg/mL (≈ 226 µM)	80 µg/mL (≈ 190 µM)	70 µg/mL (≈ 166 µM)	65 µg/mL (≈ 155 µM)	80 µg/mL (≈ 190 µM)
CC(=O)Nc1ccc(S(=O)(=O)NCc2nc3ccccc3c(=O)n2-c2ccccc2C)cc1	80 µg/mL (≈ 173 µM)	125 µg/mL (≈ 270 µM)	115 µg/mL (≈ 249 µM)	90 µg/mL (≈ 195 µM)	120 µg/mL (≈ 259 µM)	90 µg/mL (≈ 195 µM)	100 µg/mL (≈ 216 µM)
CC(=O)Nc1ccc(S(=O)(=O)NCc2nc3ccccc3c(=O)n2-c2cccc(C)c2)cc1	75 µg/mL (≈ 162 µM)	120 µg/mL (≈ 259 µM)	105 µg/mL (≈ 227 µM)	80 µg/mL (≈ 173 µM)	115 µg/mL (≈ 249 µM)	80 µg/mL (≈ 173 µM)	95 µg/mL (≈ 205 µM)
CC(=O)Nc1ccc(S(=O)(=O)NCc2nc3ccccc3c(=O)n2-c2ccc(C)cc2)cc1	70 µg/mL (≈ 151 µM)	115 µg/mL (≈ 249 µM)	105 µg/mL (≈ 227 µM)	85 µg/mL (≈ 184 µM)	105 µg/mL (≈ 227 µM)	85 µg/mL (≈ 184 µM)	95 µg/mL (≈ 205 µM)
COc1ccccc1-n1c(CNS(=O)(=O)c2ccc(N)cc2)nc2ccccc2c1=O	55 µg/mL (≈ 126 µM)	95 µg/mL (≈ 218 µM)	80 µg/mL (≈ 183 µM)	65 µg/mL (≈ 149 µM)	80 µg/mL (≈ 183 µM)	65 µg/mL (≈ 149 µM)	85 µg/mL (≈ 195 µM)
COc1cccc(-n2c(CNS(=O)(=O)c3ccc(N)cc3)nc3ccccc3c2=O)c1	50 µg/mL (≈ 115 µM)	90 µg/mL (≈ 206 µM)	75 µg/mL (≈ 172 µM)	50 µg/mL (≈ 115 µM)	85 µg/mL (≈ 195 µM)	60 µg/mL (≈ 137 µM)	80 µg/mL (≈ 183 µM)
COc1ccc(-n2c(CNS(=O)(=O)c3ccc(N)cc3)nc3ccccc3c2=O)cc1	45 µg/mL (≈ 103 µM)	75 µg/mL (≈ 172 µM)	70 µg/mL (≈ 160 µM)	55 µg/mL (≈ 126 µM)	75 µg/mL (≈ 172 µM)	50 µg/mL (≈ 115 µM)	60 µg/mL (≈ 137 µM)
COc1ccccc1-n1c(CNS(=O)(=O)c2ccc(NC(C)=O)cc2)nc2ccccc2c1=O	70 µg/mL (≈ 146 µM)	105 µg/mL (≈ 219 µM)	95 µg/mL (≈ 199 µM)	80 µg/mL (≈ 167 µM)	110 µg/mL (≈ 230 µM)	80 µg/mL (≈ 167 µM)	90 µg/mL (≈ 188 µM)
CC1(C)S[C@@H]2[C@H](NC(=O)[C@H](N)c3ccccc3)C(=O)N2[C@H]1C(=O)O [AMPICILLIN]		85 µg/mL (≈ 243 µM)	60 µg/mL (≈ 172 µM)		55 µg/mL (≈ 157 µM)	50 µg/mL (≈ 143 µM)	45 µg/mL (≈ 129 µM)
CC(=O)N1CCN(c2ccc(OCC3COC(Cn4ccnc4)(c4ccc(Cl)cc4Cl)O3)cc2)CC1 (stereo unspecified) [KETOCONAZOLE]	40 µg/mL (≈ 75.3 µM)			50 µg/mL (≈ 94.1 µM)			
